Laboratory results as given in patent US5652239A, “Pyridazinedione derivatives useful in treatment of neurological disorders” (Imperial Chemical Company, priority 1991, dated 1997).

Legend:
[1] = tested on: NMDA receptor-mediated synaptic transmission in hippocampal slices; conditions: reference antagonists, 0 Mg++, general statement; cited from earlier work
[2] = tested on: neuronal damage in the hippocampus; assay: Test D: ischemia induced by carotid occlusion in the gerbil model; format: in vivo, adult female Mongolian gerbils; conditions: 10 mg/Kg intraperitoneally, 45 minutes before and 5 minutes after occlusion
Text: (§1) The actions of compounds of formula I as antagonists at the glycine receptor of the NMDA receptor complex can be shown by one or more standard tests such as the [^3 H]-glycine binding assay (Test A), by functional assays in vitro such as tests for measuring glutamate-evoked contractions of the guinea pig ileum (Test B) and/or tests for measuring antagonism of NMDA-induced evoked response in hippocampal slices (Test C), and by tests in vivo such as ischemia induced by carotid occlusion in the gerbil model (Test D).
When testing in vivo using the gerbil ischemic model, adult female Mongolian gerbils (50-70 g) are anesthetized with 2 to 3% halothane. The bilateral common carotid arteries at the neck are exposed and occluded with microaneurysm clips. After 10 min (unless specified), the clips are removed and the blood flow through the carotid arteries is restored and the skin is sutured. […] Gross behavioral observations along with motor activity are recorded for 2 hr on the first (24 hr) day following the occlusion. […]
Sections (7 micron) are evaluated from each brain. […] The average brain damage rating score for each group is recorded, and the damage scores of the drug treated group are compared to the vehicle-treated group using Wilcoxon-Rank Sum test. […]

[3] = tested on: NMDA receptor-mediated synaptic transmission in hippocampal slices; assay: Test C: hippocampal slice test (HST), antagonism of NMDA-induced evoked response; format: cell-based, male Sprague-Dawley rats; conditions: 0 Mg++; for inhibition of the secondary PSs (antagonism) / reversal of the inhibition by D-serine: Example 1 at 15.2 μM, Example 4 at 10 μM; for concentration at which glycine antagonism is exhibited: evaluated at a multiple of the Test B IC50
Text: as §1
The characterization of a compound as a glycine antagonist in the hippocampal slice test (HST) is dependent on (1) the ability of the compound to inhibit NMDA receptor-mediated synaptic transmission in hippocampal slices and (2) the subsequent reversal of these inhibitory effects by D-serine.
The procedure for the HST is as follows. Transverse hippocampal slices are obtained from male Sprague-Dawley rats weighting 80-150 gm. The rats are decapitated and the brains quickly removed and placed in cold Krebs-Ringersolution which contains (in millimolar) NaCl (122.6), NaHCO3 (26.2), KCl (5.4), MgSO4 (2.0), NaH2 PO4 (1.2), CaCl2 (2.0), and D-glucose (10.0). The hippocampus is dissected free from surrounding tissues, and 495 microns thick slices are cut and immediately transferred to a humidified static interface chamber with a 95% O2 :5% CO2 atmosphere at room temperature. Following a 1-hour equilibration period, slices are placed one at a time into a small perfusion chamber where they are completely submerged in continuously flowing oxygenated 2 millimolar Mg++ perfusate (4 mL/min) at 33° C. and allowed to equilibrate for 10 to 15 min.
For the electrophysiology part of the experiments, bipolar tungsten stimulating electrodes are positioned in the stratum radiatum of the CA3 cell body region of the hippocampus and a single-barrel glass microelectrode filled with Krebs-Ringer solution is positioned in the CA1 cell body region. Low frequency stimulation is then applied to area CA3 which evokes a primary population spike (PS) recorded from CA1. The primary PS represents the summation of a multiple of synaptic potentials mediated via the quisqualate receptor. The stimulus intensity is adjusted to evoke a PS of 1-4 mV amplitude and is maintained at this intensity throughout the experiment.
When the perfusion medium is then changed from 1 millimolar Mg++ to one containing 0 Mg++, the primary PS is followed by the appearance of many secondary PSs. The appearance of the secondary PSs are attributed to the unmasking of NMDA-mediated synaptic events in 0 Mg++. […] The effects of directly acting NMDA and indirectly acting NMDA (ie, glycine) receptor antagonists can also be differentiated by the ability of D-serine to reverse this inhibition.

[4] = tested on: glutamate-evoked contractions of the guinea pig ileum; assay: Test B: glutamate-evoked contractions of the guinea pig ileum; format: cell-based; conditions: Cavia porcellus; twitch responses evoked with 100 micromolar glutamate
Text: as §1
For glutamate-evoked contractions of the guinea pig ileum, the methodology is as described previously (Luzzi et. al., Br. J. Pharmacol., 95, 1271-1277 (1989)). The longitudinal muscle and associated myenteric plexus are removed and placed in oxygenated modified Krebs-Henseleit solution (118 millimolar NaCl, 4.7 millimolar KCl, 2.5 millimolar CaCl2, 1.2 millimolar KH2 PO4, 25 millimolar NaHCO3, and 11 millimolar glucose). Tissues are suspended on glass rods in organ baths under a resting tension of 0.5 g. After an initial depolarization with 80 millimolar potassium ion to remove possible blockade of the NMDA receptor channel complex with magnesium ion, twitch responses are evoked with 100 micromolar glutamate. Isometric mechanical responses are recorded. Tissues are equilibrated for at least 2 hours prior to addition of compounds.
A dose response curve for the effect of the unknown on the magnitude of the glutamate-evoked contractions is generated. Glutamate-evoked contractions are generated at 20 minute intervals, with the test compound added 5 minutes before the glutamate. The magnitude of the contraction with each dose of the unknown is expressed relative to the control, the third contraction evoked by 100 micromolar glutamate alone in the same tissue bath. The IC50 is obtained from a least-squares regression of a logit-log transformation of the data.
After the last contraction for the dose-response curve, 100 micromolar glycine is added to the bath 10 minutes after the previous addition of glutamate. […]

[5] = target: T1, glycine receptor of the NMDA receptor complex (Rattus norvegicus, UniProt P35439); assay: Test A: [^3 H]-glycine binding assay; set-up: species or system male Sprague-Dawley rats; conditions: 20 nanomolar [^3 H]-glycine, rat cortical/hippocampal synaptic membranes, pH 7.1, 30 minutes at 4° C.
T1 construct: neuronal synaptic membranes are prepared from adult (about 250 g) male Sprague-Dawley rats; from tissue; host or cells: cerebral cortices and hippocampi of adult male Sprague-Dawley rats, synaptic membranes
Text: as §1
In the [^3 H]-glycine binding assay, neuronal synaptic membranes are prepared from adult (about 250 g) male Sprague-Dawley rats. Freshly dissected cortices and hippocampi are homogenized in 0.32M sucrose (110 mg/mL). Synaptosomes are isolated by centrifugation (1000 xg, 10 min), the supernatant is pelleted (20,000 xg, 20 min) and resuspended in double-distilled water. The suspension was centrifuged for 20 minutes at 8,000 xg. The resulting […] and buffy coat are washed twice (48,000 xg, 10 mins, resuspension in double-deionized water). The final pellet is quickly frozen (dry ice/ethanol bath) under double-deionized water and stored at -70° C.
On the day of the experiment, thawed synaptic membranes are homogenized with a Brinkmann Polytron (™, Brinkmann Instruments, Westbury, N.Y.) tissue homogenizer in 50 millimolar tris(hydroxymethyl)aminomethane citrate, pH 7.1. The membranes are incubated with 0.04% Sufact-AMPS X100 (™, Pierce, Rockford, Ill.) in buffer for 20 minutes at 37° C. and washed six times by centrifugation (48,000 xg, 10 min) and resuspended in buffer. The final pellet is homogenized at 200 mg wet weight/mL of the buffer for the binding assay.
For [^3 H]-glycine binding at the N-methyl-D-aspartate receptor, 20 nanomolar [^3 H]-glycine (40-60 Ci/mmol, New England Nuclear, Boston, Mass.) is incubated with the membranes suspended in 50 millimolar tris (hydroxymethyl)aminomethane citrate, pH 7.1 for 30 minutes at 4° C. Glycine, 1 millimolar, is used to define the nonspecific binding. […] Radioactivity is estimated by liquid scintillation counting. […]

| Structure (SMILES) | reversal of the inhibition of the secondary PSs by D-serine [1] | IC50 [4] | IC50 [5] | also measured |
| --- | --- | --- | --- | --- |
| O=C(O)C1CN(CCCP(=O)(O)O)CCN1 (stereo not shown) [CPP] | not reversed by D-serine | – | – | – |
| O=c1[nH][nH]c(=O)c2c1[nH]c1cc(Cl)cc(Cl)c12 [Example 4] | – | 6.4 µM | 0.33 µM | neuroprotection (relative to sham-operated control) [2]: over 75%; inhibition of the secondary PSs (antagonism) [3]: antagonist; reversal of the inhibition by D-serine [3]: reversible by D-serine; concentration at which glycine antagonism is exhibited [3]: 10 µM |
| O=c1[nH][nH]c(=O)c2c1[nH]c1cc(C(F)(F)F)cc(C(F)(F)F)c12 [Example 7, 7,9-Ditrifluoromethylpyridazino[4,5-b]indole-1,4-dione] | – | 69 µM | 2.7 µM | – |
| NC(CCCP(=O)(O)O)C(=O)O (stereo not shown) [APV] | not reversed by D-serine | – | – | – |
| C[C@]12N[C@H](Cc3ccccc31)c1ccccc12 [MK-801] | not reversed by D-serine | – | – | – |
| NC1CCN(O)C1=O (stereo not shown) [HA-966] | reversed by D-serine | – | – | inhibition of the secondary PSs [1]: inhibit the secondary PSs |
| O=C(O)c1cc(O)c2ccc(Cl)cc2n1 [7-chlorokynurenic acid] | reversed by D-serine | – | – | inhibition of the secondary PSs [1]: inhibit the secondary PSs |
| O=c1[nH][nH]c(=O)c2c1[nH]c1cc(Cl)ccc12 [Example 1] | – | 13 µM | 0.55 µM | neuroprotection (relative to sham-operated control) [2]: 34%; inhibition of the secondary PSs (antagonism) [3]: antagonist; reversal of the inhibition by D-serine [3]: reversible by D-serine; concentration at which glycine antagonism is exhibited [3]: 15.2 µM |
| c1ccc(C2(N3CCCCC3)CCCCC2)cc1 [PCP] | not reversed by D-serine | – | – | – |
